Data: patent US20180370918A1, “SORAFENIB HEMI-P-TOSYLATE MONOHYDRATE CRYSTAL AND PREPARATION PROCESS THEREOF” (CHIA TAI TIANQING PHARMACEUTICAL GROUP CO., LTD., priority 2015, published 2018)

Columns and labels:
[1] = Stability test (Chinese Pharmacopoeia 2010, Guideline for Stability Test of Bulk Drug), purity by HPLC; assay type: physicochemical
Experimental: Chromatographic column: Agilent peptide map chromatographic column (3.0×150 mm, 2.7 μm)
Mobile phase A: phosphate buffer solution (monopotassium phosphate (0.79 g) was weighted and dissolved in water, then diluted to 1000 ml, and further adjusted to pH=2.4 with phosphoric acid)
Mobile phase B: ethanol-acetonitrile (40:60)
Detection wavelength: 235 nm for detection
Column temperature: 55° C.
Solvent: mobile phase A-mobile phase B (1:3)
Preparation of a solution of a test sample: an appropriate amount of the test sample was weighted and dissolved in the solvent [mobile phase A-mobile phase B (1:3)], then diluted to a solution which comprises about 0.16 mg of sorafenib per 1 ml as the solution of the test sample.
The stability test for the sorafenib hemi-p-tosylate monohydrate crystal of the present invention was conducted according to the Chinese Pharmacopoeia (2010), Part 11, Appendix XIX C: Guideline for Stability Test of Bulk Drug and Pharmaceutical Preparation.

[2] = Hygroscopicity test (Chinese Pharmacopoeia 2010, Guideline for Hygroscopicity Test of Drug); assay type: physicochemical
Experimental: The hygroscopicity test for the sorafenib hemi-p-tosylate monohydrate crystal of the present invention was conducted according to the Chinese Pharmacopoeia (2010), Part II, Appendix XIX J: Guideline for Hygroscopicity Test of Drug.

CNC(=O)c1cc(Oc2ccc(NC(=O)Nc3ccc(Cl)c(C(F)(F)F)c3)cc2)ccn1 [sorafenib hemi-p-tosylate monohydrate]
Purity ([1]; Day 0): 99.96%
Purity ([1]; Exposure test to light (luminance: 6000 Lux), standing for 10 days): 99.97%
Purity ([1]; Shading test (luminance: 6000 Lux), standing for 10 days): 99.96%
Purity ([1]; Standing for 6 months at 25° C. ± 2° C. and humidity of 60% ± 5%): 99.96%
Purity ([1]; Standing for 10 days at 25° C. and humidity of 92.5% ± 5%): 99.96%
Purity ([1]; Standing for 10 days at 40° C.): 99.96%
Purity ([1]; Standing for 10 days at 60° C.): 99.95%
Stability (conclusion in words) ([1]; results of Table 4): highly stable
Hygroscopic weight grain (%) [2]: 0.07%
